The text below walks through data of US20220339178A1, “COMPOSITIONS AND METHODS FOR COGNITIVE PROTECTION OF POLLINATORS AGAINST PESTICIDES” (priority 2019, published 2022).

This assay concerns Honey bee foragers (Apis mellifera scutellata). Put plainly: Sucrose responsiveness (sensory sensitivity) of honey bees: flavonoids vs deltamethrin. The conditions noted are these: honey bees; rutin 1 μM, kaempferol 131.7 μM or both for one day; 17.81 μM deltamethrin next day; pooled score. It counts as in vivo. As to the method: Honey bee foragers (Apis mellifera scutellata) were captured from established hives at the Apiary of the Universidad del Rosario (Bogota, Colombia) between 08:00 h and 10:00 h. Bees were ice-anesthetized and harnessed in plastic tubes and maintained under laboratory conditions for the duration of the experiment (three days).
On the first day, bees were randomly allocated to one of four treatments administered as two doses (morning: 20 μL; afternoon:10 μL): i) Control (1M sucrose solution), ii) Rutin 1 μM (Sigma-Aldrich R5143), iii) Kaempferol 131.7 μM (Sigma-Aldrich K0133), iv) Rutin-Kaempferol composition (final concentration of […] rutin and 131.7 μM kaempferol). All solutions were diluted in 1M sucrose solution to the concentrations described above. The next day, bees from each group were randomly assigned to one of two treatments: […] of 1M sucrose solution or 17.81 μM deltamethrin (Dinastia Bayer). Thus, bees belonged to one of eight treatments: i) Sucrose water (Control), ii) Rutin (Rut), iii) Kaempferol (Kaemp), iv) Kaempferol+Rutin (Kaemp+Rut), v) Deltamethrin (Delta), vi) Rutin+Deltamethrin (Rut+Delta), vii) Kaempferol+Deltamethrin (Kaemp+Delta), viii) Kaempferol+Rutin+Deltamethrin ((Kaemp+Rut)+Delta). All solutions were diluted in 1M sugar water to the concentrations described above.
Sensory sensitivity was evaluated using responsiveness to sucrose, a proxy of resource exploitation by foragers. On the second day, bees of the eight treatments described above were tested five times for their response threshold (0 h, 1 h, 2 h, 3 h and 4 h). The first measure (0 h) was done prior to pesticide administration. Bees were tested with an ascending sucrose concentration of 0.1, 0.3, 1, 3, 10 and 30% (w/w). Between each concentration, the bees were presented with pure water as a control for potential sensitization or habituation (Pankiw et al., Behav Ecol Sociobiol (2000) 47:265-267). The inter-trial time between the presentation of each sucrose concentration was at least 4 minutes. For each presentation, the reflexive extension of the proboscis (tongue) of the bee, after antennal stimulation with the solution was recorded. After the last measure (4 h), bees were fed with 10 μL of 1M sucrose solution and maintained until the next day for a final test (24 hours after pesticide administration).
For each bee, a responsiveness score was determined (0-7) 0 h, 1 h, 2 h, 3 h, 4 h and 24 h, and a pooled scored (0-42). Normal distribution of the scores was tested using Shapiro-Wilk W Test for the null hypothesis that data is from a Normal distribution. […] Thus, non-parametric tests were used for comparisons across treatments and for multiple comparisons. Overall changes of responses across different concentrations were evaluated using repeated-measured MANOVA. Error associated with multiple comparisons was controlled using the Two-stage sharpened False Discovery Rate, and corrected p-values (q-values) are presented. Data were explored for outliers using a single run of Robust Fit outliers test. All analyses were conducted using JMP v.14 (SAS Institute Inc.)

With `C[C@@H]1O[C@@H](OC[C@H]2O[C@@H](Oc3c(-c4ccc(O)c(O)c4)oc4cc(O)cc(O)c4c3=O)[C@H](O)[C@@H](O)[C@@H]2O)[C@H](O)[C@H](O)[C@H]1O` [Rutin], the “sensitivity (sucrose responsiveness, total PER score) relative to Control bees” value was “not significantly affected”.
